According to US20230365546A1, “5-SUBSTITUTED INDOLE 3-AMIDE DERIVATIVES, PREPARATION METHOD AND USE THEREOF” (ORIGIANT PHARMACEUTICAL CO., LTD, priority 2020, published 2023):

What was measured:
Assay in all cases: Kinase Profiler 10 μM panel
BTK(h) = BTK(h) (Homo sapiens (Human), UniProt Q06187)
Method: (§1) In vitro kinase assays were conducted using Kinase Profiler services provided by Eurofins. The experimental method was as follows: the small molecule compound to be tested (0.001-10 μM), the protein kinase to be tested were incubated with a buffer containing substrate, 10 mM magnesium acetate, and [γ-^33P-ATP], the reaction was started by adding Mg\TPmix, after incubation for a period of time at room temperature, a 3% phosphate solution was added to the buffer to stop the reaction. Subsequently, 10 μL of the reaction mixture was quantitatively pipetted onto P30 filter paper, which was washed three times with 75 mM phosphate solution and then once with methanol. The P30 filter paper was air-dried and scintillation fluid was added for scintillation counting.

CaMKIγ(h) = CaMKIγ(h) (Homo sapiens (Human), UniProt Q96NX5)
Method: as §1

IRR(h) = IRR(h) (Homo sapiens (Human), UniProt P14616)
Method: as §1

SIK(h) = SIK(h) (Homo sapiens (Human), UniProt P57059)
Method: as §1

Flt1(h) = Flt1(h) (Homo sapiens (Human), UniProt P17948)
Method: as §1

FGFR2(N549H)(h) = FGFR2(N549H)(h) (Homo sapiens (Human), UniProt P21802, N549H)
Method: as §1

GRK1(h) = GRK1(h) (Homo sapiens (Human), UniProt Q15835)
Method: as §1

Haspin(h) = Haspin(h) (Homo sapiens (Human), UniProt Q8TF76)
Method: as §1

EphA8(h) = EphA8(h) (Homo sapiens (Human), UniProt P29322)
Method: as §1

CaMKIIα(h) = CaMKIIα(h) (Homo sapiens (Human), UniProt Q9UQM7)
Method: as §1

Ret (V804L)(h) = Ret (V804L)(h) (Homo sapiens (Human), UniProt P07949, V804L)
Method: as §1

Abl (M351T)(h) = Abl (M351T)(h) (Homo sapiens (Human), UniProt P00519, M351T)
Method: as §1

JNK1α1(h) = JNK1α1(h) (Homo sapiens (Human), UniProt P45983)
Method: as §1

MAPK1(h) = MAPK1(h) (Homo sapiens (Human), UniProt P27361)
Method: as §1

PRK1(h) = PRK1(h) (Homo sapiens (Human), UniProt Q16512)
Method: as §1

PAK5(h) = PAK5(h) (Homo sapiens (Human), UniProt Q9P286)
Method: as §1

NEK6(h) = NEK6(h) (Homo sapiens (Human), UniProt Q9HC98)
Method: as §1

EGFR(T790M,L858R)(h) = EGFR(T790M,L858R)(h) (Homo sapiens (Human), UniProt P00533, L858R/T790M)
Method: as §1

[1] = target: PI3 Kinase (p110a/p65a)(m) (Mus musculus (Mouse), UniProt P42337)
Method: as §1

EphA4(h) = EphA4(h) (Homo sapiens (Human), UniProt P54764)
Method: as §1

WNK1(h) = WNK1(h) (Homo sapiens (Human), UniProt Q9H4A3)
Method: as §1

Snk(h) = Snk(h) (Homo sapiens (Human), UniProt Q9NYY3)
Method: as §1

ULK1(h) = ULK1(h) (Homo sapiens (Human), UniProt O75385)
Method: as §1

Rsk3(h) = Rsk3(h) (Homo sapiens (Human), UniProt Q15349)
Method: as §1

CSK(h) = CSK(h) (Homo sapiens (Human), UniProt P41240)
Method: as §1

ACTR2(h) = ACTR2(h) (Homo sapiens (Human), UniProt P27037)
Method: as §1

Arg(h) = Arg(h) (Homo sapiens (Human), UniProt P42684)
Method: as §1

MSK1(h) = MSK1(h) (Homo sapiens (Human), UniProt O75582)
Method: as §1

Flt3(h) = Flt3(h) (Homo sapiens (Human), UniProt P36888)
Method: as §1

SAPK4(h) = SAPK4(h) (Homo sapiens (Human), UniProt O15264)
Method: as §1

Ret(h) = Ret(h) (Homo sapiens (Human), UniProt P07949)
Method: as §1

PDGFRα(V561D)(h) = PDGFRα(V561D)(h) (Homo sapiens (Human), UniProt P16234, V561D)
Method: as §1

CDK18/cyclinY(h) = CDK18/cyclinY(h) (Homo sapiens (Human), UniProt Q07002)
Method: as §1

Sequence of EphA4(h) (P54764 20-986): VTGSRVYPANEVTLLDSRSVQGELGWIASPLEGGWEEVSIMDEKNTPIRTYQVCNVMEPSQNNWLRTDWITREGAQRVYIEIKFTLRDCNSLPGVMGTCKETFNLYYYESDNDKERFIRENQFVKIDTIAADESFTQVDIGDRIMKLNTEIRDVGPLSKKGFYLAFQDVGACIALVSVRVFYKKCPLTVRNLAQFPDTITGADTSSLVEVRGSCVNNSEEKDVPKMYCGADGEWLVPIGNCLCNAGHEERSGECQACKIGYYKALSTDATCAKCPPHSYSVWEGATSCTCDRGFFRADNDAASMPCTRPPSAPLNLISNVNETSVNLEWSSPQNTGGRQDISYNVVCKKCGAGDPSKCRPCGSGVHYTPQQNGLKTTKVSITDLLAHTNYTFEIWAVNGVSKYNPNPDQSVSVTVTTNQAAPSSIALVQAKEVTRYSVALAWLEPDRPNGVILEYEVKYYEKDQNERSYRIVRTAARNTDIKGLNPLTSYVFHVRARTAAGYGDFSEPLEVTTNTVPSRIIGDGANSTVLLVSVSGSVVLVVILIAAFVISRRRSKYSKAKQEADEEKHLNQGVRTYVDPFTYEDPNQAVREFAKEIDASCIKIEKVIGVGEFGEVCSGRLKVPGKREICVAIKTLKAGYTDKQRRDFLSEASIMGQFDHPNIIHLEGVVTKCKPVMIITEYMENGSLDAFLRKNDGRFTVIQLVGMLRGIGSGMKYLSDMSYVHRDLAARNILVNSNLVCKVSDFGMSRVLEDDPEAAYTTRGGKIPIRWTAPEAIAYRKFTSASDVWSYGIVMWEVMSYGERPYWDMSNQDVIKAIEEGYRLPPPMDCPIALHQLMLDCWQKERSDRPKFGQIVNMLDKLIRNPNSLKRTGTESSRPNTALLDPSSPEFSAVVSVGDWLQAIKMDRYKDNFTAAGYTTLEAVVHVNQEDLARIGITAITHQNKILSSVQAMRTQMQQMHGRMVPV
Sequence of Flt1(h) (P17948 27-1338): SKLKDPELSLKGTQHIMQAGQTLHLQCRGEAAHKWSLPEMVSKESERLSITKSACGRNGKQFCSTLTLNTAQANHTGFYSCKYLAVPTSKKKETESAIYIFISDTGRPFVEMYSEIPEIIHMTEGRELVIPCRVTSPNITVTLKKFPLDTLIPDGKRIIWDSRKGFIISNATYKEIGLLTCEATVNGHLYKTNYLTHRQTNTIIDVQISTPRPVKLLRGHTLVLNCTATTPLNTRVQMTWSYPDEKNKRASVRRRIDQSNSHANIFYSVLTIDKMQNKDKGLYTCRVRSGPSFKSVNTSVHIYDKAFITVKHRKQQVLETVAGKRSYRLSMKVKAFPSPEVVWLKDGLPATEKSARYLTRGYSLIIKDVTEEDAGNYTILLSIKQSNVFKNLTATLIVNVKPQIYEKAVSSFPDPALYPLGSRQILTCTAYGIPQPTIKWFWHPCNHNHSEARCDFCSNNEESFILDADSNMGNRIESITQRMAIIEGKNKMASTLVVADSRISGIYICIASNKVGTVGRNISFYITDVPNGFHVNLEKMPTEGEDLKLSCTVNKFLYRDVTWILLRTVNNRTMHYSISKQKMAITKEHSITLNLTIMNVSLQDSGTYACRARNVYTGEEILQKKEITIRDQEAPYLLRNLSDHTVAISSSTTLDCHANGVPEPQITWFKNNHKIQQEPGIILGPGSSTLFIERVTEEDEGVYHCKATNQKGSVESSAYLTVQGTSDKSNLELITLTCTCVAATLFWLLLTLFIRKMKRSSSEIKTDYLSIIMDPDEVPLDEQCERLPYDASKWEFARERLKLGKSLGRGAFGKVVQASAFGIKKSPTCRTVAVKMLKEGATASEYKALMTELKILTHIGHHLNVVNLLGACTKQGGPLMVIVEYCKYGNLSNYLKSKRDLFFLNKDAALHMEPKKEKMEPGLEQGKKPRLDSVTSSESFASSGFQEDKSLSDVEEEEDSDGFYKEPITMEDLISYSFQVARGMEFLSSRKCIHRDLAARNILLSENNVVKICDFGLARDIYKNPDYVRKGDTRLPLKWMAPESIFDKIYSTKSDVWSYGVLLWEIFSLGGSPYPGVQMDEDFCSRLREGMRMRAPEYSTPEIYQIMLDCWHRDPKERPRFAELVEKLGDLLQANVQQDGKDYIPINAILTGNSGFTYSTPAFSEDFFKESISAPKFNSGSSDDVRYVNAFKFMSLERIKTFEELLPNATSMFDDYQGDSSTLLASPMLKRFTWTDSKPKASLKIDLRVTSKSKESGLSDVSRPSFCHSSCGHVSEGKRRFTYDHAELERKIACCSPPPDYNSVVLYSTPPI
Sequence of PAK5(h) (Q9P286 whole entry): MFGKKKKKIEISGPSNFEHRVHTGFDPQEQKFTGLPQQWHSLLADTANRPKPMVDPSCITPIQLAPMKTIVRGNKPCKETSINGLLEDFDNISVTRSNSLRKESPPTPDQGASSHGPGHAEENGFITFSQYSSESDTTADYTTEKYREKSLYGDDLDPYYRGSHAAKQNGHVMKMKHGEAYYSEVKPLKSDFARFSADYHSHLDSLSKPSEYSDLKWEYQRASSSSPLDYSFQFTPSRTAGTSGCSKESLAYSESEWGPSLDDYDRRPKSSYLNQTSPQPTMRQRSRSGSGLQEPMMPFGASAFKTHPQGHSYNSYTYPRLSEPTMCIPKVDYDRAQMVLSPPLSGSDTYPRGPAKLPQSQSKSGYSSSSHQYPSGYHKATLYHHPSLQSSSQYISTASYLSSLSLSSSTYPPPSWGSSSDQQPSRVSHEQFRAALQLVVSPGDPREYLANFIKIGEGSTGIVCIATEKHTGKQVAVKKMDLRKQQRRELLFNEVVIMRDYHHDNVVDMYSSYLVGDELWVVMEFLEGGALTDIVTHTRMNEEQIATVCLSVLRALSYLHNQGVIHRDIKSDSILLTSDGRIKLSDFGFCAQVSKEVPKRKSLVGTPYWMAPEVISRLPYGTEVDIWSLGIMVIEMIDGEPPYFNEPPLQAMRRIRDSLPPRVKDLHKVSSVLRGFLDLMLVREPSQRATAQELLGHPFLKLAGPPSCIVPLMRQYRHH
Sequence of Snk(h) (Q9NYY3 whole entry): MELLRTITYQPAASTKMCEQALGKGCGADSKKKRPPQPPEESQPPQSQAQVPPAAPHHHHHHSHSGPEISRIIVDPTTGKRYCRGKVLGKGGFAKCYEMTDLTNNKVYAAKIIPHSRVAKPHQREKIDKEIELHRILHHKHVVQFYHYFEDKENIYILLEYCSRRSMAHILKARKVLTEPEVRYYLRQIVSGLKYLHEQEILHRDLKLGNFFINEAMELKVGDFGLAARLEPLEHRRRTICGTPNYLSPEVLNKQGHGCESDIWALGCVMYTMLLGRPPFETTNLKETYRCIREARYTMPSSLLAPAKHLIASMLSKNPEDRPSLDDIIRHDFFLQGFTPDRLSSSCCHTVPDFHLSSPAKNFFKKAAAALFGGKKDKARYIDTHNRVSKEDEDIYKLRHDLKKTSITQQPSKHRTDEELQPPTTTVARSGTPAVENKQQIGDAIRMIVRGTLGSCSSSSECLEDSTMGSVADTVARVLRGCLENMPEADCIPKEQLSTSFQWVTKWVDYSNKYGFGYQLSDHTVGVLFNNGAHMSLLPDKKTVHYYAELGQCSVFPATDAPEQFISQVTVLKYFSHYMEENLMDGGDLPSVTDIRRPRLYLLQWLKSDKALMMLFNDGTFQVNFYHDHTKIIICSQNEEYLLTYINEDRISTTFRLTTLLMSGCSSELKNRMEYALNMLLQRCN
Sequence of JNK1α1(h) (P45983 other isoform, or with tags, fused parts or gaps): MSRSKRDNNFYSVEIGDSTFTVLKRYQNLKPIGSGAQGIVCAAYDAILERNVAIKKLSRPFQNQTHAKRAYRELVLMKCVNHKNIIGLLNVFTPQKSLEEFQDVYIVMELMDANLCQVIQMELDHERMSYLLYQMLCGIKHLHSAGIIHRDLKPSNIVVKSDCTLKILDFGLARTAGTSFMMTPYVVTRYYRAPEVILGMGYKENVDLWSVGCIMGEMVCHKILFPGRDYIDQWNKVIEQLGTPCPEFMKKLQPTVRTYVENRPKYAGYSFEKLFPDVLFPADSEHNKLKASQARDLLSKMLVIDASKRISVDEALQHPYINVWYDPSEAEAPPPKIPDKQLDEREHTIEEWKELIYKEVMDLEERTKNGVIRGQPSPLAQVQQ
Sequence of FGFR2(N549H)(h) (P21802 22-821 N549H): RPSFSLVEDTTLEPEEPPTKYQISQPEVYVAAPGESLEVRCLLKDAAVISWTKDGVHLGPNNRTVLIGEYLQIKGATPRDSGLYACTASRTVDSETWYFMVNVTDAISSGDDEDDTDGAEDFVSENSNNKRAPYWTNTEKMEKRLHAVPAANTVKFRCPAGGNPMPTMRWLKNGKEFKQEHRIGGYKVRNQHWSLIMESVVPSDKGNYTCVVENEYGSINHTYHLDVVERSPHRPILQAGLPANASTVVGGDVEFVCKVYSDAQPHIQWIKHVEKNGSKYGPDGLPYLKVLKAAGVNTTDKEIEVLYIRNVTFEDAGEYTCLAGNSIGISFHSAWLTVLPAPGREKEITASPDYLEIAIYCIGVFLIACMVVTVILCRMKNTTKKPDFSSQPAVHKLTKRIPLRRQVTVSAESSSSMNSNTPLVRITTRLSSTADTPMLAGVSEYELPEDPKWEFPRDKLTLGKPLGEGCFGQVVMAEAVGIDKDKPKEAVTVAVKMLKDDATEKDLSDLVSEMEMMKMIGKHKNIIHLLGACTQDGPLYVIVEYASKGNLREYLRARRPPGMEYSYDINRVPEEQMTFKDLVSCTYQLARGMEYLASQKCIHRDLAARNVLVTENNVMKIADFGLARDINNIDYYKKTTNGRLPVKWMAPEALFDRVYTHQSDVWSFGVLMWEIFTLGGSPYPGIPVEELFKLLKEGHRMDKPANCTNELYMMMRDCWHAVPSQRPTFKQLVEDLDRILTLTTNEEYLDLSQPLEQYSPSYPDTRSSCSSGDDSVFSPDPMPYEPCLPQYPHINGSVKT

Work on `C[C@H](NC(=O)c1c[nH]c2ccc(-c3ccc4nc(NC(=O)C5CC5)sc4c3)cc12)c1cccc(F)c1` [Compound 34, (S)-5-(2-(cyclopropanecarboxamido)benzo[d]thiazol-6-yl)-N-(1-(3-fluorophenyl)ethyl)-1H-indole-3-carboxamide] yielded an Inhibition ratio (BTK(h)) of 15%, an Inhibition ratio (CaMKIγ(h)) of 7% and an Inhibition ratio (IRR(h)) of 50%. It also gave an Inhibition ratio (SIK(h)) of 21%, an Inhibition ratio (Flt1(h)) of 100% and an Inhibition ratio (FGFR2(N549H)(h)) of 86%. The Inhibition ratio (GRK1(h)) was −24%, the Inhibition ratio (Haspin(h)) was 39% and the Inhibition ratio (EphA8(h)) was 85%. For the same molecule, the Inhibition ratio (CaMKIIα(h)) was 5%, the Inhibition ratio (Ret (V804L)(h)) was 99% and the Inhibition ratio (Abl (M351T)(h)) was 97%. The Inhibition ratio (JNK1α1(h)) was 15%, the Inhibition ratio (MAPK1(h)) was 25% and the Inhibition ratio (PRK1(h)) was 26%. The Inhibition ratio (PAK5(h)) was −2%, the Inhibition ratio (NEK6(h)) was 4% and the Inhibition ratio (EGFR(T790M,L858R)(h); EGFR(T790M,L858R)(h)) was 84%. It also gave an Inhibition ratio [1] of 30%, an Inhibition ratio (EphA4(h)) of 14% and an Inhibition ratio (WNK1(h)) of 10%. For the same molecule, the Inhibition ratio (Snk(h)) was 0%, the Inhibition ratio (ULK1(h)) was 11% and the Inhibition ratio (Rsk3(h)) was 49%. It also gave an Inhibition ratio (CSK(h)) of 13%, an Inhibition ratio (ACTR2(h)) of 6% and an Inhibition ratio (Arg(h)) of 89%. The Inhibition ratio (MSK1(h)) was 53%, the Inhibition ratio (Flt3(h)) was 79% and the Inhibition ratio (SAPK4(h)) was 94%. For the same molecule, the Inhibition ratio (Ret(h)) was 96%, the Inhibition ratio (PDGFRα(V561D)(h); PDGFRα(V561D)(h)) was 99% and the Inhibition ratio (CDK18/cyclinY(h)) was 7%.
`C[C@H](NC(=O)c1cn(C)c2ccc(-c3ccn4nc(NC(=O)C5CC5)nc4c3)cc12)c1cccc(F)c1` [Compound 94, (S)-5-(2-(cyclopropanecarboxamido)-[1,2,4]triazolo[1,5-a]pyridin-7-yl)-N-(1-(3-fluorophenyl)ethyl)-1-methyl-1H-indole-3-carboxamide] showed an Inhibition ratio/% (BTK(h)) of 65%, an Inhibition ratio/% (CaMKIγ(h)) of −13% and an Inhibition ratio/% (IRR(h)) of 33%. It also gave an Inhibition ratio/% (SIK(h)) of 54%, an Inhibition ratio/% (Flt1(h)) of 42% and an Inhibition ratio/% (FGFR2(N549H)(h)) of 12%. It also gave an Inhibition ratio/% (GRK1(h)) of 52%, an Inhibition ratio/% (Haspin(h)) of 48% and an Inhibition ratio/% (EphA8(h)) of 4%. It also gave an Inhibition ratio/% (CaMKIIα(h)) of 76%, an Inhibition ratio/% (Ret (V804L)(h)) of 50% and an Inhibition ratio/% (Abl (M351T)(h)) of 29%. For the same molecule, the Inhibition ratio/% (JNK1α1(h)) was 53%, the Inhibition ratio/% (MAPK1(h)) was 33% and the Inhibition ratio/% (PRK1(h)) was −12%. The Inhibition ratio/% (PAK5(h)) was 47%, the Inhibition ratio/% (NEK6(h)) was 23% and the Inhibition ratio/% (EGFR(T790M,L858R)(h); EGFR(T790M, L858R)(h)) was 52%. The Inhibition ratio/% [1] was 10%, the Inhibition ratio/% (EphA4(h)) was 11% and the Inhibition ratio/% (WNK1(h)) was 45%. For the same molecule, the Inhibition ratio/% (Snk(h)) was 1%, the Inhibition ratio/% (ULK1(h)) was 45% and the Inhibition ratio/% (Rsk3(h)) was 27%. It also gave an Inhibition ratio/% (CSK(h)) of 60%, an Inhibition ratio/% (ACTR2(h)) of −3% and an Inhibition ratio/% (Arg(h)) of 42%. For the same molecule, the Inhibition ratio/% (MSK1(h)) was −20%, the Inhibition ratio/% (Flt3(h)) was 27% and the Inhibition ratio/% (SAPK4(h)) was 12%. The Inhibition ratio/% (Ret(h)) was 50%, the Inhibition ratio/% (PDGFRα(V561D)(h); printed in Table 4 as PDGFRβ (V561D)(h)) was 38% and the Inhibition ratio/% (CDK18/cyclinY(h)) was 74%.
